# According to PubChem BioAssay AID248 (DTP/NCI, 2004):
# “And” between values parts separate entries of the source, which are not always exact repeats. Equal entries are not always repeated. Inconclusive results and toxic doses are left out.
# Tested on: L1210 leukemia ip in BDF1 mice, survival T/C
# Test: NCI In Vivo Anticancer Drug Screen. Data for tumor model L1210 Leukemia (intraperitoneal) in B6D2F1 (BDF1) mice
# Conditions: endpoint: mean survival time, higher = longer survival
# Outline: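 Survival endpoint. Drug-treated group vs vehicle group, expressed as T divided by C. Tumor passaged by transplantation.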
# [1] = dose: 75.0 mg/kg/injection, schedule: Q01DX001 (ip), vehicle: saline
# [2] = dose: 100.0 mg/kg/injection, schedule: Q01DX009 (ip), vehicle: Klucel (hydroxypropylcellulose) (HPC)
# [3] = dose: 200.0 mg/kg/injection, schedule: Q01DX009 (ip), vehicle: Klucel (hydroxypropylcellulose) (HPC)
# [4] = dose: 400.0 mg/kg/injection, schedule: Q01DX009 (ip), vehicle: Klucel (hydroxypropylcellulose) (HPC)
# [5] = dose: 100.0 mg/kg/injection, schedule: Q01DX009 (ip), vehicle: saline with Tween-80
# [6] = dose: 100.0 mg/kg/injection, schedule: Q04DX003 (ip), vehicle: saline with Tween-80
# [7] = dose: 100.0 mg/kg/injection, schedule: Q04DX003 (ip), vehicle: saline
# [8] = dose: 200.0 mg/kg/injection, schedule: Q04DX003 (ip), vehicle: saline
# [9] = dose: 200.0 mg/kg/injection, schedule: Q04DX003 (ip), vehicle: saline with Tween-80
# [10] = dose: 400.0 mg/kg/injection, schedule: Q04DX003 (ip), vehicle: saline with Tween-80
# [11] = dose: 100.0 mg/kg/injection, schedule: Q01DX001 (ip), vehicle: carboxymethylcellulose (CMC)
# [12] = dose: 200.0 mg/kg/injection, schedule: Q01DX001 (ip), vehicle: carboxymethylcellulose (CMC)
# [13] = dose: 400.0 mg/kg/injection, schedule: Q01DX001 (ip), vehicle: carboxymethylcellulose (CMC)
# [14] = dose: 100.0 mg/kg/injection, schedule: Q04DX003 (ip), vehicle: Klucel (hydroxypropylcellulose) (HPC)
# [15] = dose: 200.0 mg/kg/injection, schedule: Q04DX003 (ip), vehicle: Klucel (hydroxypropylcellulose) (HPC)
# [16] = dose: 400.0 mg/kg/injection, schedule: Q04DX003 (ip), vehicle: Klucel (hydroxypropylcellulose) (HPC)
# [17] = dose: 100.0 mg/kg/injection, schedule: Q01DX001 (ip), vehicle: saline with Tween-80
# [18] = dose: 200.0 mg/kg/injection, schedule: Q01DX001 (ip), vehicle: saline with Tween-80
smiles,measurement,setting,value
COc1ccccc1NC(=O)NCc1ccco1,T/C,"dose: 77.0 mg/kg/injection, schedule: Q01DX Z (ip), vehicle: methylcellulose (MC)",90 % of control
same,T/C,"dose: 116.0 mg/kg/injection, schedule: Q01DX Z (ip), vehicle: methylcellulose (MC)",103 % of control
same,T/C,"dose: 175.0 mg/kg/injection, schedule: Q01DX Z (ip), vehicle: methylcellulose (MC)",105 % of control
CNC(CO)C1CCCCC1 (configuration not stated),T/C,[1],100 % of control
same,T/C,"dose: 150.0 mg/kg/injection, schedule: Q01DX001 (ip), vehicle: saline",102 % of control
same,T/C,"dose: 300.0 mg/kg/injection, schedule: Q01DX001 (ip), vehicle: saline",101 % of control
CCOc1ccccc1NC(=O)c1ccccc1Cl,T/C,[2],102 % of control
same,T/C,[3],108 % of control
same,T/C,[4],93 % of control
Clc1nc(Cl)c2c3c(sc2n1)CCCC3,T/C,"dose: 100.0 mg/kg/injection, schedule: Q01DX001 (ip), vehicle: saline sonified",92 % of control
same,T/C,"dose: 200.0 mg/kg/injection, schedule: Q01DX001 (ip), vehicle: saline sonified",107 % of control
same,T/C,"dose: 400.0 mg/kg/injection, schedule: Q01DX001 (ip), vehicle: saline sonified",90 % of control
COc1ccc(C(=O)C(Br)C(Br)C(=O)O)cc1 (configuration not stated),T/C,"dose: 12.5 mg/kg/injection, schedule: Q01DX009 (ip), vehicle: saline with Tween-80",93 % of control
same,T/C,"dose: 25.0 mg/kg/injection, schedule: Q01DX009 (ip), vehicle: saline with Tween-80",102 % of control
same,T/C,"dose: 25.0 mg/kg/injection, schedule: Q01DX009 (ip), vehicle: saline",102 % of control
same,T/C,"dose: 25.0 mg/kg/injection, schedule: Q04DX003 (ip), vehicle: saline with Tween-80",98 % of control and 103 % of control
same,T/C,"dose: 50.0 mg/kg/injection, schedule: Q01DX009 (ip), vehicle: saline with Tween-80",104 % of control
same,T/C,"dose: 50.0 mg/kg/injection, schedule: Q01DX009 (ip), vehicle: saline",100 % of control and 94 % of control
same,T/C,"dose: 50.0 mg/kg/injection, schedule: Q04DX003 (ip), vehicle: saline with Tween-80",100 % of control and 101 % of control and 103 % of control
same,T/C,"dose: 66.0 mg/kg/injection, schedule: Q04DX003 (ip), vehicle: saline",102 % of control
same,T/C,[5],86 % of control
same,T/C,"dose: 100.0 mg/kg/injection, schedule: Q01DX009 (ip), vehicle: saline",97 % of control and 89 % of control
same,T/C,[6],100 % of control and 104 % of control and 107 % of control
same,T/C,[7],106 % of control and 122 % of control and 92 % of control
same,T/C,"dose: 150.0 mg/kg/injection, schedule: Q04DX003 (ip), vehicle: saline",111 % of control
same,T/C,[8],108 % of control
OC(c1ccccc1)(c1ccccc1)c1cccs1,T/C,[6],94 % of control
same,T/C,[9],94 % of control
same,T/C,[10],91 % of control
O=NN(Cc1ccccc1)C(c1ccccc1)S(=O)(=O)O (configuration not stated),T/C,"dose: 75.0 mg/kg/injection, schedule: Q01DX009 (ip), vehicle: saline",87 % of control
same,T/C,"dose: 100.0 mg/kg/injection, schedule: Q01DX001 (ip), vehicle: saline",112 % of control
same,T/C,"dose: 150.0 mg/kg/injection, schedule: Q01DX009 (ip), vehicle: saline",87 % of control
same,T/C,"dose: 200.0 mg/kg/injection, schedule: Q01DX001 (ip), vehicle: saline",100 % of control
same,T/C,"dose: 300.0 mg/kg/injection, schedule: Q01DX009 (ip), vehicle: saline",97 % of control
same,T/C,"dose: 400.0 mg/kg/injection, schedule: Q01DX001 (ip), vehicle: saline",93 % of control
CCOc1cc(/C=N/NC(=S)NC23CC4CC(CC(C4)C2)C3)ccc1O,T/C,"dose: 75.0 mg/kg/injection, schedule: Q01DX001 (ip), vehicle: acetone",101 % of control
same,T/C,"dose: 150.0 mg/kg/injection, schedule: Q01DX001 (ip), vehicle: acetone",92 % of control
same,T/C,"dose: 300.0 mg/kg/injection, schedule: Q01DX001 (ip), vehicle: acetone",94 % of control
Nc1ccc2c(c1)C(=O)c1c(F)c(F)c(F)c(F)c1-2,T/C,"dose: 50.0 mg/kg/injection, schedule: Q01DX001 (ip), vehicle: carboxymethylcellulose (CMC)",97 % of control
same,T/C,[11],103 % of control
same,T/C,[12],97 % of control
same,T/C,[13],100 % of control
COc1cc(OC)c(/C=C/c2ccc3ccccc3[n+]2[O-])c(OC)c1,T/C,"dose: 100.0 mg/kg/injection, schedule: Q04DX002 (ip), vehicle: gum acacia",95 % of control
same,T/C,"dose: 200.0 mg/kg/injection, schedule: Q04DX002 (ip), vehicle: gum acacia",95 % of control
same,T/C,"dose: 400.0 mg/kg/injection, schedule: Q04DX002 (ip), vehicle: gum acacia",100 % of control
COC(=O)Nc1nc2cc(Cl)c(Cl)cc2[nH]1,T/C,[11],94 % of control
same,T/C,[12],100 % of control
same,T/C,[13],100 % of control
CC(=O)c1c(C)[nH]c(C(=O)OC(C)(C)C)c1C,T/C,"dose: 100.0 mg/kg/injection, schedule: Q01DX001 (ip), vehicle: Klucel (hydroxypropylcellulose) (HPC)",95 % of control
same,T/C,[14],102 % of control
same,T/C,"dose: 200.0 mg/kg/injection, schedule: Q01DX001 (ip), vehicle: Klucel (hydroxypropylcellulose) (HPC)",97 % of control
same,T/C,[15],96 % of control
same,T/C,"dose: 400.0 mg/kg/injection, schedule: Q01DX001 (ip), vehicle: Klucel (hydroxypropylcellulose) (HPC)",95 % of control
same,T/C,[16],96 % of control
OCc1ccc(CO)cc1,T/C,"dose: 100.0 mg/kg/injection, schedule: Q01DX009 (ip), vehicle: saline sonified",100 % of control
same,T/C,"dose: 200.0 mg/kg/injection, schedule: Q01DX009 (ip), vehicle: saline sonified",94 % of control
same,T/C,"dose: 400.0 mg/kg/injection, schedule: Q01DX009 (ip), vehicle: saline sonified",103 % of control
CN(CCO)N=Nc1ccccc1C(N)=O,T/C,[5],117 % of control
same,T/C,[6],105 % of control
same,T/C,[9],110 % of control
same,T/C,"dose: 400.0 mg/kg/injection, schedule: Q01DX009 (ip), vehicle: saline with Tween-80",162 % of control and 177 % of control
same,T/C,[10],104 % of control
same,T/C,"dose: 600.0 mg/kg/injection, schedule: Q01DX009 (ip), vehicle: saline with Tween-80",176 % of control
NCCc1ccc(S(=O)(=O)O)cc1[N+](=O)[O-],T/C,[2],96 % of control
same,T/C,[14],98 % of control
same,T/C,[3],89 % of control
same,T/C,[15],94 % of control
same,T/C,[16],98 % of control
CCS(=O)(=O)C(c1ccccc1)S(=O)(=O)CC,T/C,[11],95 % of control
same,T/C,[12],87 % of control
same,T/C,[13],98 % of control
CC(C)(C)c1ccc(OC(=O)Nc2ccc(Cl)cc2[N+](=O)[O-])c(Br)c1,T/C,[2],98 % of control
same,T/C,[3],93 % of control
same,T/C,[4],98 % of control
Cc1ccc(O)c(C2CC3CCC2C3)c1 (configuration not stated),T/C,"dose: 100.0 mg/kg/injection, schedule: Q04DX003 (ip), vehicle: saline + alcohol",97 % of control
same,T/C,"dose: 200.0 mg/kg/injection, schedule: Q04DX003 (ip), vehicle: saline + alcohol",92 % of control
same,T/C,"dose: 400.0 mg/kg/injection, schedule: Q04DX003 (ip), vehicle: saline + alcohol",95 % of control
O=C(/C=C(\c1ccccc1)C1C2C=CC(C2)C1c1ccccc1)c1ccccc1 (configuration not stated),T/C,[17],97 % of control
same,T/C,[18],95 % of control
same,T/C,"dose: 400.0 mg/kg/injection, schedule: Q01DX001 (ip), vehicle: saline with Tween-80",96 % of control
Cc1ccc(S(=O)(=O)NC(=O)NCCS)cc1,T/C,[7],100 % of control
same,T/C,[8],102 % of control
same,T/C,"dose: 400.0 mg/kg/injection, schedule: Q04DX003 (ip), vehicle: saline",96 % of control
O=C(O)CC(=O)c1ccc(I)cc1,T/C,[1],94 % of control
CCCCOP(=S)(N1CCCCC1)N1CCCCC1,T/C,"dose: 100.0 mg/kg/injection, schedule: Q04DX002 (ip), vehicle: saline with Tween-80",96 % of control
same,T/C,"dose: 200.0 mg/kg/injection, schedule: Q04DX002 (ip), vehicle: saline with Tween-80",96 % of control
same,T/C,"dose: 400.0 mg/kg/injection, schedule: Q04DX002 (ip), vehicle: saline with Tween-80",107 % of control
O=C(O)CC1CCC(NC(=O)NCCCl)CC1 (configuration not stated),T/C,[17],105 % of control
same,T/C,[18],102 % of control
CCOC(=O)c1nnn(-c2cccnc2)c1C,T/C,"dose: 100.0 mg/kg/injection, schedule: Q04DX002 (ip), vehicle: saline",99 % of control
same,T/C,"dose: 200.0 mg/kg/injection, schedule: Q04DX002 (ip), vehicle: saline",101 % of control
same,T/C,"dose: 400.0 mg/kg/injection, schedule: Q04DX002 (ip), vehicle: saline",92 % of control
